Measurements reported in ChEMBL document CHEMBL1147337, “A new bastadin from the sponge Psammaplysilla purpurea” (J Nat Prod, 1993).
In brackets after ≈: the same amount, converted by molar mass.

Legend:
Dihydrofolate reductase = molecular target: T1, Dihydrofolate reductase (Homo sapiens, UniProt P00374); experiment: Inhibition of DHFR
T1 sequence (P00374 whole entry): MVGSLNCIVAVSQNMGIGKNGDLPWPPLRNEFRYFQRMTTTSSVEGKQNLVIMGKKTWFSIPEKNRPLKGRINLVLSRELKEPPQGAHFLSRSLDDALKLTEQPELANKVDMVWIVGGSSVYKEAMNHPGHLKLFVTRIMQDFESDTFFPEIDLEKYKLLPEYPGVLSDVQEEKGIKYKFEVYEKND

HT-29 = experiment: Cytotoxicity against human HT-29 cells; format: functional, cell-based
A549 = experiment: Cytotoxicity against human A549 cells; format: functional, cell-based
P388 = experiment: Cytotoxicity against mouse P388 cells; format: functional, cell-based
[1] = molecular target: DNA topoisomerase 2-alpha (Homo sapiens, UniProt P11388); experiment: Inhibition of topoisomerase 2
Sequence of DNA topoisomerase 2-alpha (P11388 whole entry): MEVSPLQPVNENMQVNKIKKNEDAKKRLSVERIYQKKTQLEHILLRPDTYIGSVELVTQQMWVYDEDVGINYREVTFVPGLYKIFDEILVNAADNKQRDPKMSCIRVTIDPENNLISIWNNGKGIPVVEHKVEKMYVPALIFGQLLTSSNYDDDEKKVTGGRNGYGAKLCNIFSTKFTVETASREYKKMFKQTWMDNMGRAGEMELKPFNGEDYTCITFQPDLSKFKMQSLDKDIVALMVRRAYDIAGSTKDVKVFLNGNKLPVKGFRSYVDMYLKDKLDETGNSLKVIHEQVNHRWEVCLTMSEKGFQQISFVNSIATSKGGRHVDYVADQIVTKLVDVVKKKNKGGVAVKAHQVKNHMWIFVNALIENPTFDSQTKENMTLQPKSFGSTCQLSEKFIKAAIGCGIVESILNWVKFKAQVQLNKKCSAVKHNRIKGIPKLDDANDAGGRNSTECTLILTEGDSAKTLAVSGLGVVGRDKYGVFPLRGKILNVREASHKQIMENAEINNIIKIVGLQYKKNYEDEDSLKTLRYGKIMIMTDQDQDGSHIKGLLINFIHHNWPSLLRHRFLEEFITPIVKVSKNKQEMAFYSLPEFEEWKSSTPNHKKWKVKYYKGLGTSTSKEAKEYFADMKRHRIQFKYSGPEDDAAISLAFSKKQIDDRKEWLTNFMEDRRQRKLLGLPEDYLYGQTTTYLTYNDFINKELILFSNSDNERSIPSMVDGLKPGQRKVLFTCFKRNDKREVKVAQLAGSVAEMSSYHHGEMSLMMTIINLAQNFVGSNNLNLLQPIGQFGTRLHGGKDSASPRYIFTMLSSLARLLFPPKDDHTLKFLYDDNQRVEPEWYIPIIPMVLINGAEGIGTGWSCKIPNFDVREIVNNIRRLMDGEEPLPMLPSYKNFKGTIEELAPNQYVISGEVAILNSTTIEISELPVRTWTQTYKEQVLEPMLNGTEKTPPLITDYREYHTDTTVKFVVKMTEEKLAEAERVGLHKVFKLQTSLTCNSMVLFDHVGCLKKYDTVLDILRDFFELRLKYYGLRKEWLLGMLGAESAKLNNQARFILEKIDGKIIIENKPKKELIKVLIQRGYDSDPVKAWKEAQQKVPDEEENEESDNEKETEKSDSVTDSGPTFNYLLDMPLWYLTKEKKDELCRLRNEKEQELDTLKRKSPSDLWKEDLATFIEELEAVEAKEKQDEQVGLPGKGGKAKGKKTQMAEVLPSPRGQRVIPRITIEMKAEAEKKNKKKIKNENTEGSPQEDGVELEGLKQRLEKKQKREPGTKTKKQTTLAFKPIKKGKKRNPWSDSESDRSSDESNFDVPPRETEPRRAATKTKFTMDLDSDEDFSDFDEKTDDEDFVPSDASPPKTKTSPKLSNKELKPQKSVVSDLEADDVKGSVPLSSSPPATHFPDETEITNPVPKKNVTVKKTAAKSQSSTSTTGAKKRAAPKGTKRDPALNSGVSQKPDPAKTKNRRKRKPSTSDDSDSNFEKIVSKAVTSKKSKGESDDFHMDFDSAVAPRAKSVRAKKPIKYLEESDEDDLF

[2] = Cytotoxicity against african green monkey CV1 cells; format: cell-based; details: Chlorocebus aethiops, CV-1

## O=C1N/C=C/c2cc(Br)c(c(Br)c2)Oc2cc(cc(Br)c2O)CCNC(=O)/C(=N/O)Cc2ccc(c(Br)c2)Oc2cc(cc(Br)c2O)C/C1=N\O [BASTADIN 14]
Dihydrofolate reductase
  IC50: 2.46 µM
HT-29
  IC50: 2 µg/mL (≈ 1.97 µM)
A549
  IC50: 2 µg/mL (≈ 1.97 µM)
P388
  IC50: 2 µg/mL (≈ 1.97 µM)
[1]
  IC50: 1.97 µM
[2]
  IC50: 2.5 µg/mL (≈ 2.46 µM)
